Test results taken from patent US9266871B2, “Trifluoromethyl-substituted fused pyrimidines and their use” (BAYER PHARMA AKTIENGESELLSCHAFT, priority 2013, dated 2016).

Experiment: Pharmacokinetic parameters following intravenous and oral administration
Type: in vivo, rat
Details: rats, i.v. 0.3 mg/kg and oral 1 mg/kg
From the text: • Klaus Witte, Kai Hu, Johanna Swiatek, Claudia Müssig, Georg Ertl and Björn Lemmer: Experimental heart failure in rats: effects on cardiovascular circadian rhythms and on myocardial β-adrenergic signaling. Cardiovasc Res 47 (2): […], 2000; Kozo Okamoto: Spontaneous hypertension in rats. Int Rev Exp Pathol 7: 227-270, 1969; Maarten van den Buuse: Circadian Rhythms of Blood Pressure, Heart Rate, and Locomotor Activity in Spontaneously Hypertensive Rats as Measured With Radio-Telemetry. Physiology & Behavior 55(4): 783-787, 1994 B-4. Determination of Pharmacokinetic Parameters Following Intravenous and Oral Administration
The pharmacokinetic parameters of the compounds of the formula (I) according to the invention are determined in male CD-1 mice, male Wistar rats and female beagles. Intravenous administration in the case of mice and rats is effected by means of a species-specific plasma/DMSO formulation, and in the case of dogs by means of a water/PEG400/ethanol formulation. In all species, oral administration of the dissolved substance is performed via gavage, based on a water/PEG400/ethanol formulation. The removal of blood from rats is simplified by inserting a silicone catheter into the right Vena jugularis externa prior to substance administration. The operation is effected at least one day prior to the experiment with isofluran anaesthesia and administration of an analgesic ([…]/rimadyl (3/1) 0.1 ml s.c.). The blood is taken (generally more than 10 time points) within a time window including terminal time points of at least 24 to a maximum of 72 hours after substance administration. The blood is removed into heparinized tubes. The blood plasma is then obtained by centrifugation; if required, it can be stored at −20° C. until further processing.
An internal standard (which may also be a chemically unrelated substance) is added to the samples of the compounds of the formula (I) according to the invention, calibration samples and qualifiers, and this is followed by protein precipitation using excess acetonitrile. Addition of a buffer solution matched to the LC conditions, and subsequent vortexing, is followed by centrifugation at 1000 g. The supernatant is analysed by means of LC-MS/MS using C18 reversed-phase columns and variable mobile phase mixtures. The substances are quantified via the peak heights or areas from extracted ion chromatograms of specific selected ion monitoring experiments.
The plasma concentration/time plots determined are used to calculate the pharmacokinetic parameters such as AUC (area under the curve), Cmax, t1/2 (terminal half life), F (bioavailability), MRT (mean residence time) and CL (clearance), using a validated pharmacokinetic calculation programme.
Since the substance quantification is performed in plasma, it is necessary to determine the blood/plasma distribution of the substance in order to be able to adjust the pharmacokinetic parameters correspondingly. For this purpose, a defined amount of substance is incubated in heparinized whole blood of the species in question in a rocking roller mixer for 20 min. After centrifugation at 1000 g, the plasma concentration is measured (by means of LC-MS/MS; see above) and determined by calculating the ratio of the Cblood/Cplasma value.

MRT (male, Wistar, rat, plasma): 6.6 h | half-life (male, Wistar, rat, plasma): 5.9 h | AUCnorm: 1.77 kg·h/L | CLblood: 0.70 L/h/kg | F: 98.8%
Structure (SMILES): C[C@@]1(C(F)(F)F)C(=O)Nc2nc(-c3nn(Cc4ncccc4F)c4ncc(F)cc34)nc(NCCC(F)(F)F)c21 (single isomer, unassigned) [Example 1-1]
